Measured values from ChEMBL document CHEMBL4190217, “Botrysphones A-C and Botrysphins A-F, Triketides and Diterpenoids from the Fungus Botrysphaeria laricina” (J Nat Prod, 2017).
pIC50: −log10 of the molar value.

How the values were obtained:
Type in all cases: cell-based
[1] = Cytotoxicity against mouse Hepa1c1c7 cells assessed as reduction in cell viability by MTT assay; details: Hepa-1c1c7
[2] = Cytotoxicity against mouse Hepa1c1c7 cells assessed as reduction in cell viability at 2.5 uM by MTT assay
[3] = Cytotoxicity against mouse Hepa1c1c7 cells assessed as reduction in cell viability at 0.125 uM by MTT assay

Compound | pIC50 [1] | Activity [2] | Activity [3]
COC1=CC(=O)[C@@H]2O[C@@H]2[C@@H]1O | < 4.30 |  | 
C=C[C@@]1(C)CC(=O)C2=C(CC[C@H]3C(C)(C)CCC[C@]23C)[C@H]1O | < 4.30 |  | 
C=C[C@@]1(C)CCC2=C(C(=O)C(O)=C3C(C)(C)CCC[C@]23C(=O)O[C@H]2C(=O)C=C(OC)[C@@H](O)[C@H]2O)[C@H]1O | 4.34 | Non-Toxic | 
COC1=CC(=O)[C@H](Cl)[C@H](O)[C@@H]1O | < 4.30 |  | 
C=C[C@]1(C)C=C2C(=O)[C@@]3(O)OC(=O)[C@@]4(CCCC(C)(C)[C@H]34)[C@@]2(O)CC1 [SPHAEROPSIDIN A] | 5.68 |  | Non-Toxic
C=C[C@]1(C)C=C2[C@@H](O)[C@@]3(O)OC(=O)[C@@]4(CCCC(C)(C)[C@H]34)[C@@]2(O)CC1 [SPHAEROPSIDIN B] | < 4.30 |  | 
C[S+]([O-])CCCCN=C=S (centres undefined) [SULFORAPHANE] | 4.80 |  | 
